US20120101098A1, “3,28-DISUBSTITUTED BETULINIC ACID DERIVATIVES AS ANTI-HIV AGENTS” (priority 2009, published 2012)
Read-outs that look alike come from different tables or passages of the source.

Tests used:
[1] = In vitro metabolic stability in pooled human liver microsomes; conditions: 3 μM, 0.2 mg/mL human liver microsome, NADPH
mock-infected MT-2 cell [2] = assay: Cytotoxicity in mock-infected MT-2 cells (XTT); conditions: concentration that inhibits mock-infected MT-2 cell growth by 50%
Description: (§1) HIV-1IIIB Replication Inhibition Assay in MT-2 Lymphocytes. The evaluation of HIV-1 inhibition was carried out as follows. […] Control wells containing virus and cells only (no drug) and cells only (no virus or drug) were also prepared. A second identical set of samples were added to cells under the same conditions without virus (mock infection) for cytotoxicity determinations (CC50 defined below). […] On day 4 PI, the assay was terminated and culture supernatants were harvested for p24 antigen ELISA analysis. The compound cytotoxicity was determined by XTT using the mock-infected sample wells.

HIV-1IIIB = HIV-1IIIB replication inhibition assay in MT-2 lymphocytes (p24 antigen ELISA); assay type: cell-based; conditions: HIV-1IIIB infected MT-2 cell lines, concentration that inhibits HIV-1IIIB replication by 50%, NS: no suppression at concentrations below the CC50
Description: as §1

HIV-1 = assay: Example 2 anti-HIV bioassay of C-28 ethylene glycol bevirimat analogs; assay type: cell-based; conditions: Example 2 compounds (Scheme B)
in vitro [3] = assay: in vitro
in vitro [4] = conditions: human, mock-infected MT-2 cells
Description: as §1

mock-infected MT-2 cell [5] = tested on: mock-infected MT-2 cell
Description: as §1

[6] = human, microsomes
[7] = Protein binding affinity (stated in words, Example 2); assay type: in vitro ADME; conditions: Example 2 compounds (Scheme B)
[8] = Solubility (stated in words)
[9] = Example 2 bioassay cytotoxicity (CC50); conditions: Example 2 compounds (Scheme B)
mock-infected MT-4 cell = assay: Cytotoxicity in mock-infected MT-4 cells; assay type: cell-based; conditions: concentration that inhibits mock-infected MT-4 cell growth by 50%; read-out: CC50
HIV-1NL4-3 = HIV-1NL4-3 replication inhibition assay in MT-4 lymphocytes (p24 antigen ELISA); assay type: cell-based; conditions: HIV-1NL4-3 infected MT-4 cell lines; concentration that inhibits HIV-1NL4-3 replication by 50%
Text: HIV-1NL4-3 Replication Inhibition Assay in MT-4 Lymphocytes. A previously described HIV-1 infectivity assay was used.^28,33 A 96-well microtiter plate was used to set up the HIV-1NL4-3 replication screening assay. NL4-3 variants at a multiplicity of infection (MOI) of 0.01 were used to infect MT4 cells. Culture supernatants were collected on day 4 post-infection for the p24 antigen capture using an ELISA kit from ZeptoMetrix Corporation (Buffalo, N.Y.).

[10] = Human immunodeficiency virus 1, MT2
[11] = Example 2 compounds (Scheme B), C-28 ethylene glycol side chains on bevirimat

Row | SMILES | CC50 (mock-infected MT-2 cell [2]) | melting point | EC50 (HIV-1IIIB; [10]) | EC50 (HIV-1IIIB) | protein binding affinity (in words) [7] | EC50 (HIV-1) | solubility (in words) ([8]; Example 1 compounds) | solubility (in words) [8, 11] | CC50 [9] | further results
1 | C=C(C)[C@@H]1CC[C@]2(C(=O)N3CCC(CCCC(=O)O)CC3)CC[C@]3(C)[C@H](CC[C@@H]4[C@@]5(C)CC[C@H](O)C(C)(C)[C@@H]5CC[C@]43C)[C@@H]12 [Compound 38, N-[3β-Hydroxy-lup-20(29)-en-28-oyl]-4-piperidine butyric acid] | 41 µM | 145 to 146 °C | 21.7 µM |  |  |  |  |  |  | Persentage of Remaining Parent Compounds (X ± SD) % ([1]; incubation time 0 min): 100.0%; Persentage of Remaining Parent Compounds (X ± SD) % ([1]; incubation time 5 min): 101.7 ± 4.7%; Persentage of Remaining Parent Compounds (X ± SD) % ([1]; incubation time 15 min): 97.6 ± 6.2%; Persentage of Remaining Parent Compounds (X ± SD) % ([1]; incubation time 30 min): 81.4 ± 8.6%; Persentage of Remaining Parent Compounds (X ± SD) % ([1]; incubation time 60 min): 62.7 ± 4.3%; Persentage of Remaining Parent Compounds (X ± SD) % ([1]; incubation time 120 min): 53.8 ± 3.8%
2 | C=C(C)[C@@H]1CC[C@]2(C(=O)O)CC[C@]3(C)[C@H](CC[C@@H]4[C@@]5(C)CC[C@H](OC(=O)CC(C)(C)C(=O)O)C(C)(C)[C@@H]5CC[C@]43C)[C@@H]12 [Compound 2, bevirimat, reference compound] |  |  |  |  |  |  |  |  |  | EC50 (HIV-1; Human immunodeficiency virus 1): 0.063 µM; CC50 (in vitro [3]): 16.3 µM
3 | C=C(CBr)[C@@H]1CC[C@]2(C(=O)NC(CC(C)C)C(=O)O)CC[C@]3(C)[C@H](CC[C@@H]4[C@@]5(C)CC[C@H](OC(=O)CC(C)(C)C(=O)O)C(C)(C)[C@@H]5CC[C@]43C)[C@@H]12 (stereo partly drawn) [Compound 30, N-[3β-O-(3′,3′-Dimethylsuccinyl)-30-bromo-lup-20(29)-en-28-oyl]-leucine] |  | 105 to 107 °C | 0.011 µM |  |  |  |  |  |  | CC50 at 4 day (in vitro [4]): 33.2 µM
4 | C=C(C)[C@@H]1CC[C@]2(C(=O)NCCCCCCCC(=O)O)CC[C@]3(C)[C@H](CC[C@@H]4[C@@]5(C)CC[C@H](O)C(C)(C)[C@@H]5CC[C@]43C)[C@@H]12 [Compound 23, N-[3β-Hydroxy-lup-20(29)-en-28-oyl]-8-aminooctanoic acid] |  |  |  | 3.3 µM |  |  |  |  |  | CC50 (mock-infected MT-2 cell [5]): 33.4 µM; half life (t1/2, time to lose 50% of parent) [6]: around 35 min
5 | C=C(COCCN1CCOCC1)[C@@H]1CC[C@]2(C(=O)NCCCCCCCC(=O)O)CC[C@]3(C)[C@H](CC[C@@H]4[C@@]5(C)CC[C@H](O)C(C)(C)[C@@H]5CC[C@]43C)[C@@H]12 [Compound 20, N-[3β-Hydroxy-30-(2′-morpholinoethoxy)-lup-20(29)-en-28-oyl]-8-aminooctanoic acid] | 24.8 µM |  |  | 1.8 µM | decreased protein binding affinity | 0.17 µM | increase in the derivative's solubility | increased solubility | 12.4 µM | 
6 | C=C(COCCN1CCOCC1)[C@@H]1CC[C@]2(C(=O)NCCCCCCCC(=O)NC)CC[C@]3(C)[C@H](CC[C@@H]4[C@@]5(C)CC[C@H](O)C(C)(C)[C@@H]5CC[C@]43C)[C@@H]12 [Compound 21] | 22.3 µM |  |  | 0.09 µM | decreased protein binding affinity | 0.046 µM | good solubility | increased solubility | 12 µM | CC50 (mock-infected MT-4 cell): > 10 µM; EC50 (HIV-1NL4-3): 0.09 µM
